These are literature values, as cited in patent publication US20080045610A1, “Methods for regulating neurotransmitter systems by inducing counteradaptations” (priority 2004, published 2008).

For one data set, the system named is opiate receptor. To be noted: compared with native morphine compound.
For data set [1] the following is noted: in vivo.
For data set [2] the following is noted: parent compound itself.

As for `CN1CC[C@]23c4c5ccc(O)c4O[C@H]2CC=C[C@H]3[C@H]1C5` [6-desoxymorphine], in the data set on opiate receptor, the “activity relative to native morphine” value is on record as 10 times. As for `CC(=O)Oc1ccc2c3c1O[C@H]1[C@@H](OC(C)=O)C=C[C@H]4[C@@H](C2)N(C)CC[C@@]341` [diacetylmorphine], the oral bioavailability was roughly 67%. A word on the half-life: it is the time needed for the level to fall by half in the phase considered. Consider `C=C1CC[C@@]2(O)[C@H]3Cc4ccc(O)c5c4[C@@]2(CCN3CC2CC2)[C@H]1O5` [nalmefene], for which the liver toxicity result in data set [1] is reported as “no dose dependent liver toxicity”. Further, the half-life in data set [2] was 8 h.
